Calls of active or inactive are those of the source.

The IC50 is the concentration that inhibits the measured activity by half. What is called EC50 is the concentration that produces a half-maximal response. One may read the AC50 as the concentration giving half of the maximal activity seen.

Assay [1] addresses G-protein coupled receptor 35 (Homo sapiens, UniProt Q9HC97). In words: inhibition of zaprinast-stimulated GPR35 beta-arrestin translocation – imaging, U2OS, beta-arrestin-GFP, zaprinast agonist, primary screen (AID 2058).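 Note: antagonist potency meaning inhibition of agonist-induced arrestin redistribution.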 Format: functional.
A short description of assay [2]: NIH3T3 cell viability loss – ATP luminescence, mouse fibroblasts, counter-screen, dose response (AID 2010).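 Note: cells exposed to compound for about 90 hours before reading.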 Format: functional, cell-based. On the technique in general: Counterscreens check selectivity or assay interference.
Assay [3] concerns the target T1, Voltage-dependent T-type calcium channel subunit alpha-1H (Homo sapiens, UniProt O95180). It is filed as functional.
The nature of assay [4]: Trypanosoma cruzi growth suppression in host cells – NIH3T3 host cells, beta-gal luminescence, confirmation (AID 2044).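 Note: intracellular parasites grown in NIH/3T3 mouse fibroblasts as host cells; luminescent beta-galactosidase reporter signal from transgenic T. cruzi replicating inside host cells; inhibitors lower the luminescence signal.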 Format: functional, cell-based.
In another assay the target is Trypsin (Sus scrofa, UniProt P00761). As to the kind of experiment: trypsin protease activity blockade – biochemical, quenched peptide fluorescence, cherry-pick, selectivity assay for Rce1 protease inhibitor project, dose response (AID 488789).
Assay [5] concerns the target T2, Voltage-gated N-type calcium channel alpha-1B subunit/Amyloid beta A4 precursor protein-binding family A member 1 (Homo sapiens, UniProt Q00975+Q02410). Format: protein assay.
Assay [6] has as its target T2, Voltage-gated N-type calcium channel alpha-1B subunit/Amyloid beta A4 precursor protein-binding family A member 1. Format: protein assay. This is another data set of the same source.
Assay [7] can be described thus: non-specific 3'UTR reporter inhibition in Clone20-Shn3RL – cell-based, Renilla luciferase, cherry-picked, counter-screen for Shn3 inhibitor project, dose response (AID 624133). It is filed as functional.
Another assay has as its target X-box-binding protein 1 (Homo sapiens, UniProt P17861). Format: functional, Cricetulus griseus.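 Note: confirmatory dose-response counter-screen serving a CHOP assay.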
Assay [8] can be described thus: loss of viability in HepG2 cells – cell-based, CellTiter-Glo, cherry-picked, cytotoxicity control for Shn3 inhibitor project, dose response (AID 624134). It is filed as functional.
Assay [9] in a line: reduction of Shn3 3'UTR-driven luciferase in osteoblasts – cell-based, Clone20 osteoblasts, firefly luciferase, cherry-picked, dose response (AID 624132).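 Note: firefly luciferase luminescence from reporter carrying the Shn3 3'UTR in osteoblasts.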 It is filed as functional.
A short description of assay [10]: Luminescence Cell-Based Dose Retest to Confirm Inhibitors of Cancer Stem Cells. [Related pubchem assays (depositor defined):AID2717, AID2721]. It is filed as functional. As to conditions: Homo sapiens.
The target in assay [11] is T3, Zinc finger protein mex-5 (Caenorhabditis elegans, UniProt Q9XUB2).
T3 sequence (Q9XUB2 whole entry): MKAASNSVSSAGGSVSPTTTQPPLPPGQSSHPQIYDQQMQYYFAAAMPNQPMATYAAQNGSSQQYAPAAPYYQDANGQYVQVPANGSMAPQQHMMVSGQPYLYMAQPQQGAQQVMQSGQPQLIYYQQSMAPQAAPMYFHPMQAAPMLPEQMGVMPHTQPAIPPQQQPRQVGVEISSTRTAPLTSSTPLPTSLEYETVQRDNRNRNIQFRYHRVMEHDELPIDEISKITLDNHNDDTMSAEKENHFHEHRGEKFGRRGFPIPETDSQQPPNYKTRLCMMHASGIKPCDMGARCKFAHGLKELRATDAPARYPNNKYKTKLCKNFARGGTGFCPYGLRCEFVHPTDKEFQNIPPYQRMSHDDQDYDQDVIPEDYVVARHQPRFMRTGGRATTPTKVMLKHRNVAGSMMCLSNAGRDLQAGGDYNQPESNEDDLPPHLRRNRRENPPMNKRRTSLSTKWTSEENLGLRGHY
In words: potency of MEX-5 RNA-binding blockers – biochemical, C. elegans, fluorescence polarization, dose response (AID 1960). Background: In fluorescence polarisation assays a small probe gives low polarisation when free and higher when bound to something large.

Assay [12] deals with T1, Voltage-dependent T-type calcium channel subunit alpha-1H. As to the kind of experiment: Inhibitors of T-Type Calcium Channels. [Related pubchem assays (depositor defined):AID449739, AID463087, AID489005, AID493041, AID504579, AID504584, AID504619, AID504628]. It is filed as functional.
Assay [13] deals with T4, RNA-binding protein pos-1 (Caenorhabditis elegans, UniProt G5EF15).
T4 sequence (G5EF15 whole entry): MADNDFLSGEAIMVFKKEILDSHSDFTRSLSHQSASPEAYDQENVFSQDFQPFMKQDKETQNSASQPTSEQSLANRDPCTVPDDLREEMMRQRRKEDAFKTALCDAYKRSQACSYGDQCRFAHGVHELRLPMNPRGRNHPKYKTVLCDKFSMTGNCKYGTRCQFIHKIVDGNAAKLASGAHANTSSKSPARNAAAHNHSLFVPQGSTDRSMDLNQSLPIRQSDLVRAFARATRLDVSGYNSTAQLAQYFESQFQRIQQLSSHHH
As to the kind of experiment: disruptors of C. elegans POS-1 RNA interaction – biochemical, fluorescence polarization, dose response (AID 1964).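 Note: purified POS-1 fused to maltose binding protein made in E. coli; potency of compounds blocking POS-1 binding to fluorescent RNA.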

The nature of assay [14]: DRD fibroblast viability loss – cell-based, non-viral oncogenic, luminescence, dose response (AID 1934). As to conditions: Homo sapiens. Format: functional.
The subject of assay [15] is BJ. In words: growth inhibition of engineered Ras-driven BJ cells – cell-based, alamar blue fluorescence, cherrypicked samples, dose response (AID 2631).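 Note: confirmatory dose-response assay in RAS-dependent BJ fibroblasts engineered with TERT, LT and ST, with cytotoxicity read by fluorescence.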 Format: functional. The conditions noted are these: Homo sapiens. Background: Alamar Blue is a resazurin reagent that responds to reducing activity.
Assay [16] addresses G-protein coupled receptor 55 (Homo sapiens, UniProt Q9Y2T6). In words: selective activators of receptor GPR55 – imaging, U2OS cells, beta-arrestin-GFP redistribution, primary screen (AID 1961). Format: functional.
A short description of assay [17]: microbe, parasite or virus in culture. The conditions noted are these: Mycobacterium tuberculosis. Format: functional.
In assay [18] the test system is BJ. As to the kind of experiment: BJ-TERT-LT-ST fibroblast viability loss – cell-based, RAS-independent, luminescence, dose response (AID 1935).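 Note: BJ fibroblasts immortalized with TERT plus LT and ST oncogenes.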 Format: functional. As to conditions: Homo sapiens.
Assay [19] has as its system BJ. As to the kind of experiment: cells. It is filed as functional, cell-based. The conditions noted are these: Homo sapiens.
In assay [20] the test system is BJ. As to the kind of experiment: BJ-TERT fibroblast viability loss – cell-based, RAS-independent, luminescence, dose response (AID 1933). Format: functional. The conditions noted are these: Homo sapiens.
Assay [21] deals with T5, Alkaline phosphatase, tissue-nonspecific isozyme (Homo sapiens, UniProt P05186).
T5 sequence (P05186 whole entry): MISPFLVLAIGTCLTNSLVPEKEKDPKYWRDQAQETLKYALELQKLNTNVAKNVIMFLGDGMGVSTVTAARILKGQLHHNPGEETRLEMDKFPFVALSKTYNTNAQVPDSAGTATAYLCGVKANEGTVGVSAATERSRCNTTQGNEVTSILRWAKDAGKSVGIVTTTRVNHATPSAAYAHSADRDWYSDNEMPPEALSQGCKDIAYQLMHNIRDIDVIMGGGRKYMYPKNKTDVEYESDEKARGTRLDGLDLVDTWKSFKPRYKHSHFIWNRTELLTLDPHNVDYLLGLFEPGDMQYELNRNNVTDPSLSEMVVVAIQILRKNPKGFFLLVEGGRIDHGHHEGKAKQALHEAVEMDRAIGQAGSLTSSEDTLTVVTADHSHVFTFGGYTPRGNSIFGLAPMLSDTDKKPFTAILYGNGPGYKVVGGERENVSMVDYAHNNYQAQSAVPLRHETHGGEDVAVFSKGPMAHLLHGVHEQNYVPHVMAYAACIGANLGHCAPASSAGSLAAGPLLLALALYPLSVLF
In words: potency against alkaline phosphatase TNAP – biochemical, luminescent, dose response, SAR follow-up (AID 1056).

The target in assay [22] is Alkaline phosphatase, placental type (Homo sapiens, UniProt P05187). As to the kind of experiment: human placental alkaline phosphatase inhibition – biochemical, luminescence, confirmation (AID 1512). Format: functional.
Assay [23] has as its target T6, Rac GTPase-activating protein 1 (Homo sapiens, UniProt Q9H0H5).
T6 sequence (Q9H0H5 whole entry): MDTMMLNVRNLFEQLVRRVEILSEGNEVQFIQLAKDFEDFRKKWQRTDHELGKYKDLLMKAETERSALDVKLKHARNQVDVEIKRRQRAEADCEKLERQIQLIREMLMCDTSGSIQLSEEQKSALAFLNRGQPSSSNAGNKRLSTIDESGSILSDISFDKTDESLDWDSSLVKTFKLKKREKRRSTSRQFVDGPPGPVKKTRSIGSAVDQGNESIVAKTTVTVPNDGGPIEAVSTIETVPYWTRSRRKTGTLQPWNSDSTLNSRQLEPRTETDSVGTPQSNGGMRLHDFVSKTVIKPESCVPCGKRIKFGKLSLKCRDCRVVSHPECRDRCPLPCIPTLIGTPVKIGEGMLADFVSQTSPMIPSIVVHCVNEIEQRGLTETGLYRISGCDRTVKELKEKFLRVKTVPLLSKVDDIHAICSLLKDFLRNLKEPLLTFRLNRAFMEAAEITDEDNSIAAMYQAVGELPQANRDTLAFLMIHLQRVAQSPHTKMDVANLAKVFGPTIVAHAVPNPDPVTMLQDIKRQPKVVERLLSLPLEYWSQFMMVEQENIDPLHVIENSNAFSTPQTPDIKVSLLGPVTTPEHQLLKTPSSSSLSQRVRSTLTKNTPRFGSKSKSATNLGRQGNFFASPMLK
As to the kind of experiment: blockers of MgcRacGAP-driven Rac1 GTP hydrolysis – biochemical, ADP Hunter fluorescence, primary and confirmatory, confirmation (AID 624330). Format: functional.

T1 sequence (O95180 whole entry): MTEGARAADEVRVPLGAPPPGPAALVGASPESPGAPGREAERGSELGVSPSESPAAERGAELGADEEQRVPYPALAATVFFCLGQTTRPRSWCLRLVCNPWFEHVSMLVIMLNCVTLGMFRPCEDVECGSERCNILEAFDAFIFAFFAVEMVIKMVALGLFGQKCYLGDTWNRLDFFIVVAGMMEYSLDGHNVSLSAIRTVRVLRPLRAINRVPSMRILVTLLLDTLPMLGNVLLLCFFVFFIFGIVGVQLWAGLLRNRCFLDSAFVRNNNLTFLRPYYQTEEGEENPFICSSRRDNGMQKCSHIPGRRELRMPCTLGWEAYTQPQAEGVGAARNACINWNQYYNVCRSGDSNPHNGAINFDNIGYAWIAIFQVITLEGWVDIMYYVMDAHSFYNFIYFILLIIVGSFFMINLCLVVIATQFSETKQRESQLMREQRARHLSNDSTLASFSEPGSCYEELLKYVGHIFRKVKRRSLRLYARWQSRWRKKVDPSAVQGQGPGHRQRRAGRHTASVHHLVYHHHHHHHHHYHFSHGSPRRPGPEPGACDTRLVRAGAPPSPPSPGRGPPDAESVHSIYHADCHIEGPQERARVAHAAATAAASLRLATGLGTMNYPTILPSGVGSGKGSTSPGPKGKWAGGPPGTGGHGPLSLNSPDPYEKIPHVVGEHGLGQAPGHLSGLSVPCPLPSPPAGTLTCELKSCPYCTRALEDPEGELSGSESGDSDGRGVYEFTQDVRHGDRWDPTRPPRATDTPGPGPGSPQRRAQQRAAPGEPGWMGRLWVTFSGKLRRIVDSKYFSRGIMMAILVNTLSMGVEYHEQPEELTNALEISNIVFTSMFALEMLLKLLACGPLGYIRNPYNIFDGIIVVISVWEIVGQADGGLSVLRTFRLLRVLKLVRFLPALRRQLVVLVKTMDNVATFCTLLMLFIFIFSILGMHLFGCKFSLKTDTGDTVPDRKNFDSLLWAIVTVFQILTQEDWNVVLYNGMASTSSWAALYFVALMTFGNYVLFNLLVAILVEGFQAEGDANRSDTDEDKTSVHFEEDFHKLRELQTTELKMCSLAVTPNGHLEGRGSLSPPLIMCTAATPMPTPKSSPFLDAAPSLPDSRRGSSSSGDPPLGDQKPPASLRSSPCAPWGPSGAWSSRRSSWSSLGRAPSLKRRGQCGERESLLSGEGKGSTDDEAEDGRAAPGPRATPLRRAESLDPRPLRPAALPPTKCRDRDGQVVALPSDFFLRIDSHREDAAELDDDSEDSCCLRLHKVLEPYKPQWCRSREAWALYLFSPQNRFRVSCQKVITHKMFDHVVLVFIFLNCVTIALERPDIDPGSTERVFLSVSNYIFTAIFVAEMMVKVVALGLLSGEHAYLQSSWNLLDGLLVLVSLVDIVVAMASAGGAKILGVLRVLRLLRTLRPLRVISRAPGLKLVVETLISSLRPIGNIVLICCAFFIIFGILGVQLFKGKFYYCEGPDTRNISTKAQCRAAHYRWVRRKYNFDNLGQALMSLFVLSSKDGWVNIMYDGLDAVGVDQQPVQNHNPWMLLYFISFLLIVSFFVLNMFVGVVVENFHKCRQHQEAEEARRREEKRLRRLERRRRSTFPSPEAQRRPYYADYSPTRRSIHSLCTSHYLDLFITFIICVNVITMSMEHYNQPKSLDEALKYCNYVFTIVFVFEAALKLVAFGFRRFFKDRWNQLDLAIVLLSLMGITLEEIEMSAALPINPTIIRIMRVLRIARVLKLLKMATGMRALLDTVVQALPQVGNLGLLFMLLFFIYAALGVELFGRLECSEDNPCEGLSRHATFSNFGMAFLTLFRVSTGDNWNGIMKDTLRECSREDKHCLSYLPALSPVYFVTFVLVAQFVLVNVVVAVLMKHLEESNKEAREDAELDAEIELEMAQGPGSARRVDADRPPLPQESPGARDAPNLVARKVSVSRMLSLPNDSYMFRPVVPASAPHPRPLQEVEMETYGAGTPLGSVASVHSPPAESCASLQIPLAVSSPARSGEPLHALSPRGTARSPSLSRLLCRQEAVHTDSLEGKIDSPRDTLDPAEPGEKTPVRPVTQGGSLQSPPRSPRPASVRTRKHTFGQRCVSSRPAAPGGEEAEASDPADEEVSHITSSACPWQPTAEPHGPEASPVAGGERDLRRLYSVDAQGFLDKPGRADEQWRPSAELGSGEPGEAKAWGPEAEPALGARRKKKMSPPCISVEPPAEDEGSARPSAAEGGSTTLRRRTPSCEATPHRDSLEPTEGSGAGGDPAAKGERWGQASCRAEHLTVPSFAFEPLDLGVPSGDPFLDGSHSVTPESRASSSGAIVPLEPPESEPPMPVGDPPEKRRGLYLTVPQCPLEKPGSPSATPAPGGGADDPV
Chain of Alkaline phosphatase, placental type (P05187 whole entry): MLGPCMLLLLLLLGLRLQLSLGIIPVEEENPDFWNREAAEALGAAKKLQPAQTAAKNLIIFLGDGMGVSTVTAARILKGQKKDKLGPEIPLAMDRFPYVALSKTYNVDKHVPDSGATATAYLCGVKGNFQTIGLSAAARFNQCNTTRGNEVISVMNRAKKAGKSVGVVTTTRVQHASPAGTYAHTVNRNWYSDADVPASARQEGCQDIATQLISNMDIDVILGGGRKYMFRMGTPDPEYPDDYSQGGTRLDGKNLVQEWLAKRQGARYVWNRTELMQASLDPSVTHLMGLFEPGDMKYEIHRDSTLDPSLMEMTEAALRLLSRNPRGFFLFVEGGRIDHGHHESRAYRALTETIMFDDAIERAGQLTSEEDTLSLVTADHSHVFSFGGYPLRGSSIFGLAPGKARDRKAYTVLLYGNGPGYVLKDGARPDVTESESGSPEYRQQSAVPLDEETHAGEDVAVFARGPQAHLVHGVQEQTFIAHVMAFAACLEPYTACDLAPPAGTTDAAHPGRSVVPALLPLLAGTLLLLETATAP
Chain of G-protein coupled receptor 35 (Q9HC97 whole entry): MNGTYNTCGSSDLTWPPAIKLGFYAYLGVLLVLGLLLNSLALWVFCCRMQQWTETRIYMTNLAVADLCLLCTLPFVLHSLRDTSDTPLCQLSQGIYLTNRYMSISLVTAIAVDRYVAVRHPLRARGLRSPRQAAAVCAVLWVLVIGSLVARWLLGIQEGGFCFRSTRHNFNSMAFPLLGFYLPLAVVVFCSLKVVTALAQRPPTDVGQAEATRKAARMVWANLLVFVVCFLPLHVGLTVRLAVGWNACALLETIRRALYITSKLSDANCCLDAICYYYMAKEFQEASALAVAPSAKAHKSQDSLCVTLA
Chain of G-protein coupled receptor 55 (Q9Y2T6 whole entry): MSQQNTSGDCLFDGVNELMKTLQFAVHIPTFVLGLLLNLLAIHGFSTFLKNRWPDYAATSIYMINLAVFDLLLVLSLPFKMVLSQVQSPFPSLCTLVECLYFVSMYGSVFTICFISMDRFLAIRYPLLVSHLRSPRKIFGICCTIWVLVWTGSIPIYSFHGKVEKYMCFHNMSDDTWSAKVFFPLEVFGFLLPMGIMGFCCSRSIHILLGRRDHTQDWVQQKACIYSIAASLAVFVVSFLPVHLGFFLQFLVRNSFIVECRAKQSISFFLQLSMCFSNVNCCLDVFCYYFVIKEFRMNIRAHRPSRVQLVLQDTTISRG
Chain of Trypsin (P00761 whole entry): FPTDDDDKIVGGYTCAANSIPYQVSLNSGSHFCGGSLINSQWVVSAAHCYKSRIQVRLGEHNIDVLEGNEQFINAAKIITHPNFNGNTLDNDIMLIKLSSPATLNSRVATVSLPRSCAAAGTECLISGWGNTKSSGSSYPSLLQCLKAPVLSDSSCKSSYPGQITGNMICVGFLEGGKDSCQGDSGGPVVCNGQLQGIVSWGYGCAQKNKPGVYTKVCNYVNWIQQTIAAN
Chain of X-box-binding protein 1 (P17861 whole entry): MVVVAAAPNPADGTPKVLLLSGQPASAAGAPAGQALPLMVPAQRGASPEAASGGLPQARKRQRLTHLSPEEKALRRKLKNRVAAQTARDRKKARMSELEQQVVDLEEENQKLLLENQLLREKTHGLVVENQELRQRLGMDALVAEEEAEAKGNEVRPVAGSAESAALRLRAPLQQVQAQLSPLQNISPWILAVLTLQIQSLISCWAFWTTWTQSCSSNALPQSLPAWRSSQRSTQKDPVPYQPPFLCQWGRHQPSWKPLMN

In the case of `CCN(CC)c1ccc(/C=C(/C#N)c2nc3cc(C)ccc3[nH]2)c(OC(C)C)c1`, the IC50 in assay [1] is 0.557 µM (active). The values for the EC50 in assay [2], in assay [3] and in assay [4] were > 60 µM (not active), 1.62 µM (active) and 0.823 µM (active), respectively.
For `COc1ccc(-c2oc3ccc(N4CCOCC4)cc3c2/C=C/c2ccc(OC)c(OC)c2)cc1`, the AC50 at Trypsin is 2.77 µM (active).
For the compound `N#CC1=C([S-])NC(=O)[C@H]([n+]2ccccc2)[C@H]1c1ccc(Cl)cc1`, the values for the IC50 in [5] and in assay [6] were > 56.8 µM (not active) and > 50 µM (inactive), respectively.
Consider `Cc1cc(Nc2cccc([N+](=O)[O-])c2)n2c(nc3ccccc32)c1C#N`, for which the AC50 in [7] was 3.46 µM (active); in assay [8] it was 2.15 µM (active); in assay [9], 1.9 µM (active); in assay [10] it was 2.33 µM (active). For the same compound, the “Absolute IC50 (XBP1)” value on X-box-binding protein 1 turned out to be 10 µM. Further, the EC50 in assay [2] was > 60 µM (inconclusive); in [4] it was 2.47 µM (active).
Regarding `Cc1ccc(N2C(=O)c3cccc4c(N5CCN(C)CC5)ccc(c34)C2=O)c2cccnc12`, the EC50 was 7.84 µM (active) in [11], 4.61 µM (active) in assay [12], 7.8 µM (active) in assay [13] and 0.658 µM (active) in [3].
As to `COc1ccc(C=C2C=C(C(C)(C)C)C(=O)C(C(C)(C)C)=C2)cc1OC`, the EC50 in [14] was 5.35 µM (inconclusive); in the assay with BJ [15], 0.571 µM (inconclusive); in assay [16] it was > 32 µM (inactive); in the assay on BJ [18], 3.54 µM (inconclusive); in the assay with BJ [19], 6.69 µM (active); in the assay with BJ [20], 2.93 µM (active). The IC50 in assay [1] was 3.16 µM (active). The CC50 in assay [17] is 12.8 µM (active). The AC50 in assay [10] was 1.88 µM (active).
On to `Cc1cc(C)c(C#N)c(SCC(=O)c2ccc3c(c2)OCO3)n1`, for which the IC50 in assay [21] and in assay [22] was > 100 µM (inactive) throughout.
On to `C=CCn1c(SCC(=O)c2ccc(O)c(O)c2)nnc1-c1cccc(Cl)c1`, for which the IC50 in assay [21] was 20.7 µM (active); in assay [22], 6.62 µM (active); in assay [23], 79.5 µM (active).

The values are drawn from ChEMBL document CHEMBL1201862, “PubChem BioAssay data set” (2004).
